Experimental data as given in ChEMBL document CHEMBL1143678, “Self-assembling cannabinomimetics: supramolecular structures of N-alkyl amides” (J Nat Prod, 2007).

Molecular target: Cannabinoid receptor 2 (Homo sapiens, UniProt P34972)
Assay: Displacement of [3H]CP-55940 from CB2 receptor expressed in HEK cells
Assay type: cell-based, HEK293

Sequence of Cannabinoid receptor 2 (P34972 whole entry): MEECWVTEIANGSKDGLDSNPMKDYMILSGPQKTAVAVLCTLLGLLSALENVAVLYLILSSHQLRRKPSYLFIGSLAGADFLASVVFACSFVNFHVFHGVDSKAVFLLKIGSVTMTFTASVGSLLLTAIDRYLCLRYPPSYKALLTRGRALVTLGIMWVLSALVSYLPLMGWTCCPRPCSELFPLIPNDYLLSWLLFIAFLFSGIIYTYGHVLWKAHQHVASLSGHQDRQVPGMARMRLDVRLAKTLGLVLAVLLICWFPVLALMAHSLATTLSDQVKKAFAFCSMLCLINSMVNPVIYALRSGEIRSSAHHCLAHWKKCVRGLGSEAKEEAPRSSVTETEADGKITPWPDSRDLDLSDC

Which Ki does the source give for `CCCCCCC/C=C/C=C/C(=O)NCC(C)C` here?
The Ki was 52 nM.
